These results are taken from PMC4855620, “Structure‐activity relationship of the peptide binding‐motif mediating the BRCA2:RAD51 protein–protein interaction” (Febs Letters, 2016).

“Also recorded” adds a separate entry of the source. Where two headings read alike, the source gives them in different places. Residues, ends and D or L forms follow the SMILES beside them.

For assay [1], the target named is HumRadA2 (humanised, monomeric RadA; surrogate for RAD51) (Pyrococcus furiosus, UniProt O74036). Description: Isothermal titration calorimetry of peptides against HumRadA2. Type of assay: binding. The conditions noted are these: for ΔH: Tris pH 7.5, 100 mM NaCl, low c-value conditions, ± = model-fitting error; for TΔS: ΔS derived from ΔG by subtracting ΔH; for Change in binding affinity relative to FHTA: ITC K D compared with FHTA. The method, then:
Protein expression and purification was performed as described previously 15. In brief, monomeric HumRadA2 was expressed in E. coli using T7‐based expression vector at 37 °C for 3 h. Soluble cell lysate was heat treated to precipitate most of the cellular proteins and the soluble fraction containing HumRadA2 was purified using a combination of cation exchange chromatography at pH 6.0 and size‐exclusion chromatography in 10 mM MES, 100 mM NaCl pH 6.0 buffer. Protein concentration was determined using the calculated extinction coefficient at 280 nm, and stored at −80 °C in small aliquots after flash freezing.
Isothermal titration calorimetry experiments were performed at 25 °C on a MicroCal iTC200. HumRadA2 (600 μM in 20 mM MES pH 6.0 with 100 mM NaCl and 0.5 mM EDTA) was diluted with Tris buffer (200 mM, pH 7.5 with 100 mM NaCl) to 64–83 μM. […] The peptide solution was titrated into the protein solution; 16 injections (2.4 μL) of 4.8 s duration were made at 80‐s intervals. The initial injection of ligand (0.4 μL) was discarded during data analysis. […] The data were processed and thermodynamic parameters obtained by fitting the data to a single‐site‐binding model using Origin software and fixing the stoichiometry as 1.0 for weak‐binding ligands 16.

In assay [2] the target is HumRadA2 (humanised, monomeric RadA from Pyrococcus furiosus) (Pyrococcus furiosus) (UniProt O74036). Description: ITC; peptide (2.5-5 mM) titrated into HumRadA2 (64-83 μM) at 25 °C, MicroCal iTC200, 200 mM Tris pH 7.5, 100 mM NaCl; single-site model, stoichiometry fixed as 1.0 for weak-binding ligands; low c-value conditions.
Assay [3] has the same target. Described as above. The source holds these as a separate data set.
In assay [4] the test system is RAD51. The conditions noted are these: RAD51 oligomerisation sequence FTTA mutated; cited from earlier work. From the text: Table 1 Summary of FxxA‐relevant mutations previously reported and degree of characterisation. The mutation, relevant peptide context, resulting FxxA motif sequence and experimental technique for each entry is given. For clarity, mutated residues are shown in bold | column: Effect

Where [5] appears, read: ITC, 25 °C, MicroCal iTC200, peptide 2.5–5 mM in 200 mM Tris pH 7.5, 100 mM NaCl titrated into 64–83 μM HumRadA2, single-site model, stoichiometry fixed at 1.0 for weak binders, ± = fitting error.

On to `CC(=O)N[C@@H](Cc1ccccc1)C(=O)N[C@@H](Cc1c[nH]cn1)C(=O)N[C@@H](C)C(=O)N[C@@H](C)C(N)=O` [FHAA] (Ac-FHAA-NH2), for which, in assay [1] (setting [5]), the Kd is 675 ± 60 µM. Further, in assay [1] (ITC, 25 °C), the ΔH is -7.948 ± 0.466 kcal/mol and the TΔS is -3.636 kcal/mol.
On the same counts, the results for `CC(=O)N[C@@H](Cc1ccccc1)C(=O)N[C@@H](Cc1c[nH]cn1)C(=O)N1CCC[C@H]1C(=O)N[C@@H](C)C(N)=O` [FHPA] (Ac-FHPA-NH2) are 113 ± 3 µM, -2.155 ± 0.026 kcal/mol and 3.218 kcal/mol.
In the case of `CC(=O)N[C@@H](Cc1ccccc1)C(=O)N[C@@H](Cc1c[nH]cn1)C(=O)N[C@H](C(=O)N[C@@H](C)C(N)=O)[C@@H](C)O` [FHTA] (Ac-FHTA-NH2), in assay [1] (ITC, 25 °C), the ΔH is -2.388 ± 0.094 kcal/mol and the TΔS was found to be 2.453 kcal/mol.
As to `CC(=O)N[C@@H](Cc1ccccc1)C(=O)N[C@@H](Cc1c[nH]cn1)C(=O)N[C@H](C(=O)NCC(N)=O)[C@@H](C)O` [FHTG] (Ac-FHTG-NH2), in assay [1], the “Change in binding affinity relative to FHTA” value was “approximately sixfold drop in binding affinity”. In addition, the Kd in assay [1] (setting [5]) turned out to be 1590 ± 300 µM. Moreover, in assay [1] (ITC, 25 °C), the ΔH is -5.518 ± 0.924 kcal/mol and the TΔS was -1.702 kcal/mol.
Consider `CC[C@H](NC(=O)[C@@H](NC(=O)[C@H](Cc1c[nH]cn1)NC(=O)[C@H](Cc1ccccc1)NC(C)=O)[C@@H](C)O)C(N)=O` [FHTU] (HELM PEPTIDE1{[ac].F.H.T.[Abu].[am]}$$$$V2.0), for which, in assay [1] (setting [5]), the Kd was determined as 680 ± 51 µM.
Regarding `CC(=O)N[C@@H](Cc1ccccc1)C(=O)N[C@@H](CC(N)=O)C(=O)N[C@H](C(=O)N[C@@H](C)C(N)=O)[C@@H](C)O` [FNTA] (Ac-FNTA-NH2), in assay [1] (setting [5]), the Kd was found to be 613 ± 44 µM. Moreover, in assay [1] (ITC, 25 °C), the ΔH is -4.036 ± 0.177 kcal/mol and the TΔS was found to be 0.346 kcal/mol.
For `CC(=O)N[C@@H](Cc1c[nH]c2ccccc12)C(=O)N[C@@H](Cc1c[nH]cn1)C(=O)N1CCC[C@H]1C(=O)N[C@@H](C)C(N)=O` [WHPA] (Ac-WHPA-NH2), the “Change in binding affinity relative to FHTA” value in assay [1] is “no improvement”. Also, the Kd in assay [1] (setting [5]) was determined as 330 ± 25 µM. Also, in assay [1] (ITC, 25 °C), the ΔH is -6.801 ± 0.318 kcal/mol and the TΔS was -2.044 kcal/mol.
On the same counts, the results for `CC(=O)N[C@@H](Cc1c[nH]c2ccccc12)C(=O)N[C@@H](Cc1c[nH]cn1)C(=O)N[C@H](C(=O)N[C@@H](C)C(N)=O)[C@@H](C)O` [WHTA] (Ac-WHTA-NH2) are “increase the binding affinity of the peptide approximately threefold”, 93 ± 3 µM, -2.768 ± 0.034 kcal/mol and 2.727 kcal/mol.
Turning to “FHTU tetrapeptide (U = α-amino butyric acid)”, the dH in assay [2] is -14.6 kcal/mol.
Turning to “FPTA [N-acetylated, C-amide terminated tetrapeptide FPTA]”, the “K D” value in assay [1] (setting [5]) is recorded as “no affinity for the protein; also recorded: No detectable binding”.
Ac-FHAA-NH2 [FHAA tetrapeptide]: the dH in assay [2] was -7.95 kcal/mol.
On the same count and under the same terms, to Ac-FHTG-NH2 [FHTG tetrapeptide] belongs -5.52 kcal/mol; to Ac-FNTA-NH2 [FNTA tetrapeptide], -4.04 kcal/mol; to Ac-WHTA-NH2 [WHTA tetrapeptide], -2.77 kcal/mol.
In the case of Ac-WHPA-NH2 [WHPA tetrapeptide], in assay [3], the Kd came to 690 µM. Besides, the dH in assay [2] is -6.8 kcal/mol.
Regarding Ac-FHPA-NH2 [FHPA tetrapeptide], the dH in assay [2] was -2.16 kcal/mol.
On to Ac-FHTA-NH2 [FHTA tetrapeptide (FxxA motif of BRC4 of BRCA2)], for which, in assay [2], the Kd was determined as 280 µM and the dH was -2.39 kcal/mol.

B1: RAD51 A89E: RAD51 with oligomerisation sequence FTTA mutated to FTTE (literature) (protein, UniProt Q06609 2-339, looked up, variant A89E)
DNA repair protein RAD51 …: AMQMQLEANADTSVEEESFGPQPISRLEQCGINANDVKKLEEAGFHTVEAVAYAPKKELINIKGISEAKADKILAEAAKLVPMGFTTETEFHQRRSEIIQITTGSKELDKLLQGGIETGSITEMFGEFRTGKTQICHTLAVTCQLPIDRGGGEGKAMYIDTEGTFRPERLLAVAERYGLSGSDVLDNVAYARAFNTDHQTQLLYQASAMMVESRYALLIVDSATALYRTDYSGRGELSARQMHLARFLRMLLRLADEFGVAVVITNQVVAQVDGAAMFAADPKKPIGGNIIAHASTTRLYLRKGRGETRICKIYDSPCLPEAEAMFAINADGVGDAKD
Consider B1, for which the “Effect of mutation (binding)” value in assay [4] is given as “No binding”.

B2: RAD51 F86E: RAD51 with oligomerisation sequence FTTA mutated to ETTA (literature) (protein, UniProt Q06609 2-339, looked up, variant F86E)
DNA repair protein RAD51 …: AMQMQLEANADTSVEEESFGPQPISRLEQCGINANDVKKLEEAGFHTVEAVAYAPKKELINIKGISEAKADKILAEAAKLVPMGETTATEFHQRRSEIIQITTGSKELDKLLQGGIETGSITEMFGEFRTGKTQICHTLAVTCQLPIDRGGGEGKAMYIDTEGTFRPERLLAVAERYGLSGSDVLDNVAYARAFNTDHQTQLLYQASAMMVESRYALLIVDSATALYRTDYSGRGELSARQMHLARFLRMLLRLADEFGVAVVITNQVVAQVDGAAMFAADPKKPIGGNIIAHASTTRLYLRKGRGETRICKIYDSPCLPEAEAMFAINADGVGDAKD
For B2, the “Effect of mutation (binding)” value in assay [4] was “No binding”.
